Entries after “also recorded” stand apart in the source; their conditions may differ.
Tests used:
[1] = test system: monospecies biofilm of Streptococcus sobrinus; conditions: monospecies biofilm vs planktonic form; cited from earlier work
[2] = test system: Streptococcus mutans biofilm; assay: Potentiation of chlorhexidine with dual wavelength PDT; type: cell-based; conditions: versus reference and treatment with only one wavelength; FIG. 3
From the text: Treatment can be combined with use of antibiotics and disinfectants for synergist antipathogen effect. For example, the use phototherapy with chlorhexidine to target biofilms is new to oral disinfection. The results of dual wavelength photodynamic therapy with chlorhexidine against Streptococcus mutans biofilm shown in appendix III are completely new. […] The effectivity is based on photon and anionic photosensitizer ability to penetrate deeper into biofilm and provide efficient bacteria killing inside the biofilm as well as on the surface. The chlorhexidine effect is mostly present only on the surface of the biofilm. High energy photons reduce the biofilm EPS matrix formation that further increases the chlorhexidine effectivity in subsequent treatments. In a second series of tests, potentiation of chlorhexidine with dual wavelength PDT was evaluated.

[3] = test system: Streptococcus mutans biofilm; assay: Streptococcus mutans monospecies biofilm model, PDT with indocyanine green, viability by serial dilution CFU; type: cell-based, Streptococcus mutans (ATCC 25175); conditions: 250 μg/ml ICG with 810 nm light
Description: Two separate monospecies biofilm model experiments were performed to study the effect of reoccurring photodynamic therapy on biofilm formation. The Streptococcus mutans biofilm experiments were divided in different classes based on biofilm age and the therapy given.
The one-time PDT treatment was performed for 1 day, 2 days and 4 days old biofilms. […] The viability of the bacteria was assessed by serial dilution CFU method which was performed after the last photodynamic therapy treatment.
Streptococcus mutans (ATCC 25175) bacteria was grown over 18 h in growth chamber (36° C., 5% CO2) in BHI-broth (Bio-Rad 3564014). The resulting bacteria suspension was diluted with 0.9% NaCl suspension to optical density of 0.46.
Biofilm was grown on bottom of well plate by adding 100 ul diluted Streptococcus mutans suspension in each well with 100 μl of BHI-broth growth medium. The bacteria plate was incubated in growth chamber (36 Celsius, 5% CO2) and BHI-broth medium changed daily.
Before the light exposure, the growth medium was replaced with indocyanine green suspension which was let to incubate in dark in room temperature for 10 minutes. […] The treatment time was calculated from desired light amount and known intensity.
The light exposure was performed by placing the well plate under known LED light source. The given light intensity was analyzed with Thorlabs PM100D and S121C sensor head. […]

amine fluoride
greater concentration needed to kill biofilm than planktonic counterpart [1]: 100 time

[H]/N=C(\N/C(=N/[H])NCCCCCCNC(=N)NC(=N)Nc1ccc(Cl)cc1)Nc1ccc(Cl)cc1 [chlorhexidine]
greater concentration needed to kill biofilm than planktonic counterpart [1]: 100 time | antimicrobial effect of chlorhexidine combined with multi (dual) wavelength PDT [2]: increased substantially; also recorded: much stronger effect

CC1(C)C(/C=C/C=C/C=C/C=C2\N(CCCCS(=O)(=O)O)c3ccc4ccccc4c3C2(C)C)=[N+](CCCCS(=O)(=O)[O-])c2ccc3ccccc3c21 [ICG, Indocyanine Green]
effect of PDT treatment on biofilm (CFU) ([3]; single wavelength, 4 days old biofilm treated every day): poor treatment effect | effect of PDT treatment on biofilm (CFU) ([3]; treatment given once to 1, 2 and 4 days old biofilms): strong effect

From US20220167853A1, “Method for plaque detection” (Koite Health Oy, priority 2019, published 2022)
